Tests used:
HCT-116 cells = test: Apoptosis and cell cycle analysis by flow cytometry (PI staining); type: cell-based, human; conditions: HCT-116, 48 h at IC50 concentration
Experimental: Compared to the control (untreated cells), changes in the cell cycle distribution of treated HCT-116 cells were evident.
Figure 6 Inhibition of cell cycle progress in HCT-116 cells treated with compounds 8d, 8f, 8c and 8j for 48 h. Cells were fixed with ethanol and stained with PI. Cell cycle distribution was analyzed by flow cytometry. First peak represents sub-G1 peak, which was taken as the fraction of the apoptotic cell population. TEXT PRINTED IN THE PICTURE: 8d: Diploid: 100.00%; Dip G1: 87.24 % at 74.84; Dip G2: 7.42 % at 147.44; Dip S: 5.34 % | 8f: Diploid: 100.00%; Dip G1: 74.25 % at 73.13; Dip G2: 10.86 % at 144.07; Dip S: 14.89 % | 8c: Diploid: 100.00%; Dip G1: 82.72 % at 72.85; Dip G2: 6.28 % at 143.51; Dip S: 11.00% | 8j: Diploid: 100.00%; Dip G1: 15.12 % at 45.10; Dip G2: 52.47 % at 88.84; Dip S: 32.40%; Apoptosis: 4.01 % Mean: 33.84 | Control (−): Diploid: 100.00%; Dip G1: 35.32 % at 52.60; Dip G2: 19.20 % at 103.62; Dip S: 45.84% DOUBTS OF THE COPYIST ABOUT THIS PICTURE: Print is small throughout, so 3, 5, 6, 8 and 9 cannot be told apart with certainty in the values below; best readings are given. / 8d, Dip G1: 87.24 % at 74.84, the 8s uncertain / 8d, Dip S: 5.34, the 5 and 3 uncertain / 8f, Dip G2: 10.86 % at 144.07, the 8 and 6 uncertain / 8f, Dip S: 14.89, the 8 and 9 uncertain / 8c, Dip G1: 82.72 % at 72.85, the 8s and 5 uncertain / 8c, Dip G2: 6.28 % at 143.51, the 6, 8, 3 and 5 uncertain / 8j, Dip G2: 52.47 % at 88.84, the 5 and 8s uncertain / 8j, Apoptosis: 4.01 % Mean: 33.84, the 3s and 8 uncertain / Control (−), Dip G1: 35.32 % at 52.60, the 3s, 5s and 6 uncertain / Control (−), Dip G2: 19.20 % at 103.62, the 9, 3 and 6 uncertain / Control (−), Dip S: 45.84, the 5 and 8 uncertain / Control (−) is an untreated control, not a compound; it is included because results are printed with it. / G2/G1: 1.97 and %CV, printed in every plot, are left out as fit parameter and statistic.
Apoptosis was quantified by assessing the fraction of cells with sub-G1 DNA content by flow cytometry. The cells lines were treated with indicated concentrations of compounds […]. After incubated for 48 h, cells were washed twice with ice-cold PBS, fixed and permeabilized with ice-cold 70% ethanol at −20 °C overnight. The cells were treated with 100 μg/mL RNase A at 37 °C for 30 min after washed with ice-cold PBS, and finally stained with 1 mg/mL propidium iodide (PI) in the dark at 4 °C for 30 min. Analysis was performed with the system software (Cell Quest; BD Biosciences, Franklin Lakes, NJ, USA).

[1] = tested on: Bax, Bcl-2, cytochrome c, caspase-9 and caspase-3 in HCT-116 cells; test: Western blot of apoptosis-related proteins; type: cell-based, human
Excerpt: To confirm the molecular mechanisms involved in the observed apoptosis alterations, we investigated the effects of compound 8j on the expression of proteins important for mitochondria mediated apoptosis. Apoptosis occurs through two different pathways, that is the intrinsic and extrinsic pathways. Intrinsic pathway involves mitochondria that play a pivotal role in apoptosis, whereas extrinsic pathway is mediated by cell death receptors such as Fas, TNF α after receiving the death signal. It is well-known that the intrinsic pathway is regulated by the Bcl-2 family of pro- and anti- apoptotic proteins, which stimulate the permeabilization of the mitochondrial outer membrane and cytochrome c released into the cytosol, promoting in the activation of the caspase cascade and the induction of apoptotic cell death. […] Then, the roles of important caspases (caspase-9 and caspase-3) were investigated. […] Thus, compound 8j induced HCT-116 cells apoptosis might decrease the activation of Bcl-2 and stimulate its downstream proteins which are associated with the mitochondria-dependent apoptotic pathway.
Figure 7 Effect of compound 8j on cytochrome c release and levels of Bcl-2, Bax, Caspase-9 and Caspase-3. Equal amount of protein was loaded on SDS-PAGE gel for western blot analysis as described in experimental section. β-actin was used as an internal control.

[2] = tested on: human KB (human nasopharyngeal carcinoma cells); test: MTT cytotoxicity assay, human KB; type: cell-based; conditions: Homo sapiens, light or radiation study, 48 h, no irradiation, mean ± SD of three experiments
Experimental: Cell Lines. The following in vitro human cancer cell lines were used: HCT-116 (Human colorectal cells), human KB (human nasopharyngeal carcinoma cells), MGC-803 (human lung adenocarcinoma cell line), HUVEC (Human Umbilical Vein Endothelial Cells). The cell lines (HCT-116, KB, MGC-803 and HUVEC) were purchased from the Cell Resource Center of Shanghai Institutes for Biological Sciences, the Academy of Sciences of China.
Cell Culture. HCT-116, human KB, MGC-803 and HUVEC cells were cultured in Dulbecco Modified Eagle Medium (DMEM; HyClone, Los Angeles, CA, USA), containing 4.0 mM L-Glutamine and 4500 mg/L Glucose, supplemented with 10% (v/v) foetalbovine serum (FBS; HyClone). The cell culturemedia was supplemented with penicillin/streptomycin at 100 Units/mL as adherent monolayers. Cell cultures were kept in a humidified incubator with 5% CO2 at 37 °C. Stock solutions were prepared in dimethyl sulfoxide (DMSO) and further dilutions were made with fresh culture medium. The concentration of DMSO in the final culture medium was 1%, which had no effect on the cell viability.
MTT Assay. Chemosensitivity was assessed using 3-(4,5-dimethylthiazol-2-yl)-2,5-diphenyl tetrazolium bromide (MTT) assay. Briefly, exponentially growing HCT-116 (3000–4000 cells/well), human KB (2000–3000 cells/well) and MGC 803 (2000–3000 cells/well) were seeded into 96-well plates and treated with indicated concentrations of samples for 48 h, and then […] of MTT (10 mg/mL) was added. After incubation for 4 h at 37 °C, the purple formazan crystals (i.e., a reduced form of MTT) generated from viable cells were dissolved by adding 100 μL DMSO in each well. The plates were swirled gently for 10 min to dissolve the precipitate, and quantified by measuring the optical density (OD) of the plates at a wavelength of 490 nm on plate reader (TECAN infinite M1000). Each concentration was repeated in three wells and the same experimental conditions were provided for all compounds and MTT analysis was repeated three times for each cell line.

[3] = HCT-116, vs control cells, dose-dependent

Row | Structure (SMILES) | G1-phase population (HCT-116 cells; untreated cells 35.32%) [%] | Cytochrome c release ([1]; HCT-116, cytosol) | Levels of caspase-3 protein ([1]; HCT-116, vs control) | Levels of caspase-9 protein ([1]; HCT-116, vs control) | Expression of Bcl-2 [1, 3] | Levels of Bax [1, 3] | IC50 [2] [nM] | Cell cycle effect in words (HCT-116 cells)
1 | CCOP(=O)(OCC)C(NC(=O)CCOc1ccc2c(C)cc(=O)oc2c1)c1cccc(Br)c1 (centres unmarked) [Compound 8f, Diethyl(3-(4-methyl-2-oxo-2H-chromen-7-yloxy)propanamido)(3-bromophenyl)methylphospho-nate] | 74.25 | – | – | – | – | – | – | –
2 | CCOP(=O)(OCC)C(C)(NC(=O)CCOc1ccc2c(C)cc(=O)oc2c1)c1ccccc1 (centres unmarked) [Compound 8j, Diethyl 1-(3-(4-methyl-2-oxo-2H-chromen-7-yloxy)propanamido)-1-phenylethylphosphonate] | – | accumulation of cytochrome c in the cytosol | marked increase | marked increase | decrease | significant increase | 80 | accumulation of cells in the G2 phase accompanying reduction in the G1 phase
